PubChem BioAssay (NCI)
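Cells were grown in 96-well plates and exposed to each compound for 48 hours at five concentrations; endpoints were interpolated linearly between bracketing concentrations, or set to the highest concentration if not reached. GI50 marks 50% less growth. The concentration for full growth arrest is given as TGI.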

What was measured:
Test in all cases: NCI anticancer screen, dose series, 48 h
SF-268 CNS = system: SF-268 CNS
HL-60(TB) leukemia = system: HL-60(TB) leukemia
U251 CNS = system: U251 CNS
IGROV1 ovarian = system: IGROV1 ovarian
A498 renal = system: A498 renal
RPMI-8226 leukemia = system: RPMI-8226 leukemia
TK-10 renal = system: TK-10 renal
HS 578T breast = system: HS 578T breast
SF-295 CNS = system: SF-295 CNS
HCC-2998 colon = system: HCC-2998 colon

SMILES | GI50 (SF-268 CNS) [µM] | TGI (SF-268 CNS) [µM] | GI50 (HL-60(TB) leukemia) [µM] | TGI (HL-60(TB) leukemia) [µM] | GI50 (U251 CNS) [µM] | TGI (U251 CNS) [µM] | GI50 (IGROV1 ovarian) [µM] | TGI (IGROV1 ovarian) [µM] | GI50 (A498 renal) [µM] | TGI (A498 renal) [µM] | GI50 (RPMI-8226 leukemia) [µM] | TGI (RPMI-8226 leukemia) [µM] | GI50 (TK-10 renal) [µM] | TGI (TK-10 renal) [µM] | GI50 (HS 578T breast) [µM] | TGI (HS 578T breast) [µM] | GI50 (SF-295 CNS) [µM] | TGI (SF-295 CNS) [µM] | GI50 (HCC-2998 colon) [µM] | TGI (HCC-2998 colon) [µM]
CNC12C3C4C1C1C2C3C41C(=O)N[C@H](C(=O)N(C)[C@H](C[C@@H](OC(C)=O)c1nc(C(=O)N[C@@H](Cc2ccccc2)C[C@H](C)C(=O)OC)cs1)C(C)C)C1CC1 (stereo partly drawn) | 0.354 | > 10.6 | 0.0403 | 0.135 | 0.587 | > 15 | 0.172 | > 13.4 | 1.06 | > 10.9 | 0.0705 | 1.89 | 0.562 | > 15 | 0.354 | > 10.3 | 0.343 | 1.31 | 0.319 | 2.67
O=C1c2ccccc2C(=O)c2sc(Nc3ccc(Cl)cc3)nc21 | – | 5.52 | – | 1.05 | – | 3.55 | – | 6.9 | – | 29.7 | – | 4.73 | – | 14.6 | 2.92 | 14.1 | – | 15.8 | – | 7.43
Cc1[nH]c(=O)nc(N/N=C/c2ccc(Cl)cc2)c1C(=O)Nc1ccc(Cl)cc1 | – | > 100 | – | > 100 | – | 23.5 | – | > 100 | – | 57.2 | – | > 80.2 | – | 56.9 | – | > 100 | – | 43.4 | – | > 100
COc1ccc(C2CC(c3cccc(OC)c3)=NN2C(=O)c2cc(OC)c(OC)c(OC)c2)cc1 (stereo not drawn) | 4.09 | > 100 | 0.609 | – | 3.04 | > 100 | 1.49 | > 100 | 1.12 | – | 1.05 | 4.35 | – | > 100 | 1.21 | 5.37 | 0.654 | > 100 | 4.27 | > 100
Cc1cccc2c(N=Nc3ccccc3[N+](=O)[O-])c(O)[nH]c12 | – | 33.3 | – | > 100 | – | 7.68 | – | > 50.5 | – | > 38.3 | – | > 89.3 | – | 16.9 | – | 16.4 | – | 28.3 | – | > 31.6
N=C1N=C(N)S/C1=C\c1ccc2ncccc2c1 | > 25 | > 25 | > 25 | > 25 | > 25 | > 25 | > 25 | > 25 | 13.7 | > 25 | > 25 | > 25 | > 25 | > 25 | > 19.1 | > 25 | > 25 | > 25 | > 25 | > 25
CC(=O)[O][Hg][CH2]C1(C)COC(C)([CH2][Hg][O]C(C)=O)CO1 (stereo not drawn) | 4.73 | 9.17 | 2.89 | 5.94 | 1.44 | 2.79 | 2.35 | 7.12 | 19.4 | 34.8 | 1.17 | 8.29 | 2.29 | 6.2 | 2.61 | 16 | 3.62 | 8.44 | 15.7 | 30.2
O=C(Nc1nc(-c2ccccc2)cs1)c1cc(O)c(O)c(O)c1 | 2.72 | 31.9 | 3.05 | 10.1 | 2.88 | 21 | 3.12 | 22.8 | 5.41 | 28.2 | 2.99 | 22.1 | 3.62 | 59.4 | 3.37 | 83.8 | 6.97 | 55.1 | 10.1 | 36.3
NC(=S)N/N=C/c1ccc(OC(=O)COc2ccccc2)cn1 | 2.95 | > 100 | 1.18 | > 100 | 4.15 | > 100 | 9.39 | > 100 | 14.8 | 81 | 7.47 | > 100 | > 100 | > 100 | 68.4 | > 100 | 20.7 | > 100 | 8.37 | > 100
COc1ccc(Nc2ncc(-c3ccccc3)o2)cc1OC | > 17.2 | > 25 | 10.9 | > 19 | 11.2 | > 25 | > 17.1 | > 25 | 7.77 | > 25 | > 24 | > 25 | 6.07 | > 25 | 8.43 | > 25 | > 24.2 | > 25 | > 25 | > 25
